Experimental data from US7407988B2, “Carbamic acid compounds comprising a sulfonamide linkage as HDAC inhibitors” (Topotarget UK Limited, priority 2000, dated 2008).
Where two headings read alike, the source gives them in different places.

What was measured:
[1] = system: NHEK-Ad primary human adult keratinocyte line; assay: Secondary assay: cell proliferation WST-1, NHEK-Ad; format: cell-based; settings: 48 h, read-out: Cell Proliferation Inhibition WST-1 (IC50 unless otherwise specified) NHEK-AD
[2] = system: JURKAT human T-cell line; assay: Secondary assay: cell proliferation WST-1, Jurkat; format: cell-based; settings: Table 2, 48 h, read-out: Cell Proliferation Inhibition WST-1 (IC50 unless otherwise specified) Jurkat
[3] = system: K11 HPV E7 transformed human keratinocyte line; assay: Secondary assay: cell proliferation WST-1, K11; format: cell-based; settings: Table 2, 48 h, read-out: Cell Proliferation Inhibition WST-1 (IC50 unless otherwise specified) K11
[4] = system: HDAC (HeLa cell extract); assay: Primary assay: deacetylase activity, HeLa cell extract as source of HDAC; format: biochemical, human
Source text: (§1) Briefly, this assay relies on the release of radioactive acetate from a radioactively labelled histone fragment by the action of HDAC enzyme. Test compounds, which inhibit HDAC, reduce the yield of radioactive acetate. Signal (e.g., scintillation counts) measured in the presence and absence of a test compound provide an indication of that compound's ability to inhibit HDAC activity. Decreased activity indicates increased inhibition by the test compound.
(§2) The histone fragment was an N-terminal sequence from histone H4, and it was labelled with radioactively labelled acetyl groups using tritiated acetylcoenzyme A (coA) in conjunction with an enzyme which is the histone acetyltransferase domain of the transcriptional coactivator p300. […] The acetylated peptide was then separated from free acetyl coA by size exclusion chromatography on Sephadex G-15 (Sigma G-15-120), using distilled H2O as the mobile phase.
(§3) After purification of the radiolabelled histone fragment, it was incubated with a source of HDAC (e.g., an extract of HeLa cells (a rich source of HDAC), recombinantly produced HDAC1 or HDAC2) and any released acetate was extracted into an organic phase and quantitatively determined using scintillation counting. By including a test compound with the source of HDAC, that compound's ability to inhibit the HDAC was determined.
Two cell volumes of extraction buffer were used, and particulate material was centrifuged out (20800 g, 4° C., 10 min). The supernatant extract having deacetylase activity was aliquotted and frozen for storage.
A source of HDAC (e.g., 2 μL of crude HeLa extract, 5 μL of HDAC1 or HDAC2; in elution buffer, as above) was incubated with 3 μL of radioactively labelled peptide along with appropriate dilutions of candidate compounds (1.5 μL) in a total volume of 150 μL of buffer (20 mM Tris pH 7.4, 10% glycerol). The reaction was carried out at 37° C. for one hour, after which the reaction was stopped by adding 20 μL of 1 M HCl/0.4 M sodium acetate. […] Radioactivity was measured using a Tri-Carb 21 00TR Liquid Scintillation Analyzer (Packard).
(§4) Percent activity (% activity) for each test compound was calculated as: % activity={(S^C−B)/(S°−B)}×100 wherein S^C denotes signal measured in the presence of enzyme and the compound being tested, S° denotes signal measured in the presence of enzyme but in the absence of the compound being tested, and B denotes the background signal measured in the absence of both enzyme and compound being tested.

[5] = system: HeLa cells; assay: Secondary assay: cell proliferation WST-1, HeLa; format: cell-based; settings: Homo sapiens, read-out: Cell Proliferation Inhibition WST-1 (IC50 unless otherwise specified) HeLa
[6] = molecular target: T1, human HDAC1 (Homo sapiens, UniProt Q13547); assay: Primary assay: deacetylase activity, recombinantly produced HDAC1; format: biochemical; settings: Table 1; recombinant HDAC1; read-out: HDAC Inhibition (IC50 unless otherwise specified) HDAC1
T1 construct: Full length human HDAC1 was cloned by PCR; Flag (C); implied by Ni-NTA purification) (N); made in house; host or cells: SF9 insect cells (baculovirus)
Source text: as §1, §2, §3
Full length human HDAC1 was cloned by PCR using a λgt11 Jurkat cDNA library (Clontech-HL5012b). […] A second PCR was carried out in order to amplify a fragment containing the HDAC1 sequence fused to the Flag tag.
Amplification of recombinant viruses was performed according to the Pharmingen Instruction Manual.
For protein production, 2×10^7 cells were infected with the appropriate recombinant virus for 3 days. Cells were then harvested and spun at 3,000 rpm for 5 minutes. They were then washed twice in PBS and resuspended in 2 pellet volumes of lysis buffer (25 mM HEPES pH 7.9, 0.1 mM EDTA, 400 mM KCl, 10% glycerol, 0.1% NP-40, 1 mM AEBSF). […]
A source of HDAC (e.g., 2 μL of crude HeLa extract, 5 μL of HDAC1 or HDAC2; in elution buffer, as above) was incubated with 3 μL of radioactively labelled peptide along with appropriate dilutions of candidate compounds (1.5 μL) in a total volume of 150 μL of buffer (20 mM Tris pH 7.4, 10% glycerol). […] Radioactivity was measured using a Tri-Carb 21 00TR Liquid Scintillation Analyzer (Packard).
as §4

[7] = molecular target: T2, human HDAC2 (Homo sapiens, UniProt Q92769); assay: Primary assay: deacetylase activity, recombinantly produced HDAC2; format: biochemical; settings: Table 1; recombinant HDAC2; read-out: HDAC Inhibition (IC50 unless otherwise specified) HDAC2
T2 construct: Full length human HDAC2 was subcloned; Flag (carried over from the HDAC2-pFlag-CTC construct; inferred by analogy to HDAC1) (C); implied by Ni-NTA purification) (N); made in house; host or cells: SF9 insect cells (baculovirus)

[8] = Table 1, read-out: HDAC Inhibition (IC50 unless otherwise specified) HeLa
[9] = comparative tables, HDAC inhibition, read-out: HeLa IC50
[10] = Homo sapiens, Keratinocyte, Table 2, NHEK-AD

T1 sequence (Q13547 whole entry): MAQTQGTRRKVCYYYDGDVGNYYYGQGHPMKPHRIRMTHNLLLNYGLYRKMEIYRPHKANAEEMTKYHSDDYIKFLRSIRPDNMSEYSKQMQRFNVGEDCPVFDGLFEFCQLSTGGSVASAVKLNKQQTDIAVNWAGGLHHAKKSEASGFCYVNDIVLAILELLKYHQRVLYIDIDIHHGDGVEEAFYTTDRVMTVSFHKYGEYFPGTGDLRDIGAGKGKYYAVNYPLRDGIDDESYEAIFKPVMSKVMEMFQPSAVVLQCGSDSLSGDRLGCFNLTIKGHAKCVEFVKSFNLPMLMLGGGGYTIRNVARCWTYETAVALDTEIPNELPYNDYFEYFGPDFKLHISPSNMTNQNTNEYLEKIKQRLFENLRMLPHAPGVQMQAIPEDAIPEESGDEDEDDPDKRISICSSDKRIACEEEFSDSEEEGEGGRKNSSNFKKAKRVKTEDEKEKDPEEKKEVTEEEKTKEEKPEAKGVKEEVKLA
T2 sequence (Q92769 whole entry): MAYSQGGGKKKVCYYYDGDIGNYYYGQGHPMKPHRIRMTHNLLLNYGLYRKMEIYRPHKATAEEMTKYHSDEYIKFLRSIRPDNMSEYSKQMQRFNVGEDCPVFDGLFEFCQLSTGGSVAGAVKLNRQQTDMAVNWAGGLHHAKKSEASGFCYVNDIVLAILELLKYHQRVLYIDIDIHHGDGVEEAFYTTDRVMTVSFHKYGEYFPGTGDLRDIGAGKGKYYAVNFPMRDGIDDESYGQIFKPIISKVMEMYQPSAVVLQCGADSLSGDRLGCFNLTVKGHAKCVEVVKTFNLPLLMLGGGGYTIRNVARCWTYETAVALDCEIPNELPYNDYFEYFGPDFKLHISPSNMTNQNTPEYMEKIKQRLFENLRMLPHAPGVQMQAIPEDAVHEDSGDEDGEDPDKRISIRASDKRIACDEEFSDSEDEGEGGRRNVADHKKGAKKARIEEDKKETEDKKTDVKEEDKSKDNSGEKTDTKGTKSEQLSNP

Row | SMILES | IC50 ([1]; Table 2, NHEK-AD) | IC50 [2] | IC50 [3] | IC50 [4, 8] | IC50 [4, 9] | IC50 ([1]; Homo sapiens, Keratinocyte) | IC50 ([2]; Homo sapiens) | IC50 ([3]; Homo sapiens, Keratinocyte) | IC50 ([5]; 48 h) | IC50 [6] | melting point | IC50 ([5]; Table 2, 48 h) | IC50 [1, 10] | IC50 [7]
1 | Nc1ccccc1NC(=O)c1ccc(CNC(=O)OCc2cccnc2)cc1 [MS-275, reference compound] | 3100 nM | 365 nM | 9160 nM | – | – | – | – | – | – | – | – | – | – | –
2 | O=C(/C=C/C#Cc1cccc(NS(=O)(=O)c2ccccc2)c1)NO [Oxamflatin, (2E)-5-[3-[(phenylsulfonyl)amino]phenyl]-pent-2-en-4-ynohydroxamic acid, reference compound] | – | – | – | 38 nM | 38 nM | 3530 nM | 260 nM | 4560 nM | 1100 nM | – | – | – | – | –
3 | Cc1ccc(S(=O)(=O)Nc2cccc(/C=C/C(=O)NO)c2)cc1 [PX089342, N-Hydroxy-3-[3(toluene-4-sulfonylamino)-phenyl]-acrylamide] | – | – | – | 125 nM | 125 nM | – | – | – | – | 50 nM | 147 °C | 4100 nM | – | –
4 | O=C(/C=C/c1cccc(S(=O)(=O)Nc2ccccc2)c1)NO [PX105684, N-Hydroxy-3-(3-phenylsulfamoylphenyl)acrylamide] | – | – | – | – | – | – | 200 nM | 2400 nM | – | – | – | 2200 nM | 1500 nM | –
5 | CN(c1ccccc1)S(=O)(=O)c1cccc(/C=C/C(=O)NO)c1 [PX105685] | – | – | – | – | – | – | – | – | 7300 nM | – | – | – | – | 600 nM
6 | COc1ccc(NS(=O)(=O)c2cccc(/C=C/C(=O)NO)c2)cc1 [PX105844] | – | – | – | 15 nM | – | – | – | – | – | 29 nM | 186 °C | 400 nM | – | –
7 | Cc1ccc(NS(=O)(=O)c2cccc(/C=C/C(=O)NO)c2)cc1 [PX106508] | – | – | – | 31 nM | 31 nM | – | 300 nM | 3500 nM | – | 90 nM | 200 °C | 1600 nM | – | –
8 | O=C(/C=C/c1cccc(S(=O)(=O)NCCc2ccccc2)c1)NO [PX106512] | – | – | – | 22 nM | 22 nM | – | 210 nM | 2400 nM | – | 458 nM | 114 °C | 1900 nM | – | –
9 | O=C(/C=C/c1cccc(S(=O)(=O)Nc2cccc3ccccc23)c1)NO [PX117228, N-Hydroxy-3-[3-(naphthalen-1-ylsulfamoyl)-phenyl]-acrylamide] | – | – | – | 7 nM | 7 nM | 1200 nM | 150 nM | 1400 nM | 800 nM | – | 180 °C | – | – | –
10 | O=C(CCCCCCCS(=O)(=O)Nc1ccccc1)NO [PX117245] | – | – | – | 16 nM | – | – | 1100 nM | – | – | – | 87 to 88 °C | 310 nM | 520 nM | –
11 | O=C(/C=C/c1cccc(S(=O)(=O)Nc2ccc3ccccc3c2)c1)NO [PX117445, N-Hydroxy-3-[3-(naphthalen-2-ylsulfamoyl)-phenyl]-acrylamide] | – | – | – | 2 nM | – | – | 130 nM | 1200 nM | – | – | 164 °C | 1100 nM | 750 nM | –
12 | O=C(/C=C/c1ccc(S(=O)(=O)Nc2ccc(-c3ccccc3)cc2)cc1)NO [PX117792, N-Hydroxy-3-[4-(biphenyl-4-ylsulfamoyl)-phenyl]-acrylamide] | – | – | – | 48 nM | – | – | 430 nM | 400 nM | – | – | 211 to 211.5 °C | 1400 nM | – | –
13 | O=C(/C=C/c1ccc(NS(=O)(=O)c2ccc(-c3ccccc3)cc2)cc1)NO [PX117793, (E)-N-Hydroxy-3-[4-(4-biphenylsulfonylamino)-phenyl]-2-propenamide] | – | – | – | 50 nM | – | – | 500 nM | 2700 nM | – | – | 190 to 191.5 °C | 2000 nM | – | –
14 | COc1ccc(S(=O)(=O)Nc2ccc(/C=C/C(=O)NO)cc2)cc1OC [PX117794, (E)-N-Hydroxy-3-[4-(3,4-dimethoxyphenylsulfonylamino)-phenyl]-2-propenamide] | – | – | – | 24 nM | – | – | 600 nM | 2300 nM | – | – | 178.5 to 179 °C | 3300 nM | – | –
15 | O=C(/C=C/c1ccc(S(=O)(=O)Nc2ccc(Br)cc2)cc1)NO [PX117795, N-Hydroxy-3-[4-(4-bromo-phenylsulfamoyl)-phenyl]-acrylamide] | – | – | – | 13 nM | – | – | 510 nM | 1500 nM | – | – | 219 to 220.5 °C | 3400 nM | – | –
16 | CCn1c2ccccc2c2cc(NS(=O)(=O)c3cccc(/C=C/C(=O)NO)c3)ccc21 [PX117798] | – | – | – | 50 nM | – | – | 3600 nM | 350 nM | – | – | 130 to 133 °C | 900 nM | – | –
17 | CC(/C=C/C(=O)NO)=C\[C@@H](C)C(=O)c1ccc(N(C)C)cc1 [TSA, trichostatin A, reference compound] | – | – | – | – | – | – | 42 nM | 380 nM | – | – | – | 350 nM | 200 nM | –
